# Patent US5552267A, “Solution for prolonged organ preservation” (priority 1994, dated 1996)
# Test system: nitric oxide production in heart
# Assay: direct measurement of coronary vascular and endocardial NO with porphyrinic microsensor
# Set-up: species or system rat
# Conditions: transplanted hearts
# Protocol: Direct measurement of coronary vascular and endocardial nitric oxide synthesis were made with a porphyrinic microsensor^13 using differential pulse voltammetry or amperometry. Rat hearts were explanted and preserved as described above, and studied fresh (no preservation/transplantation) or after hypothermic preservation in lactated Ringer's (LR) solution, heterotopic transplantation, and 10 minutes of reperfusion. The coronary vasculature was flushed free of blood with LR followed by 4 ml of LR supplemented with L-Arg (2 mM) and bradykinin ([…], Sigma), which was recycled (1 ml/min) through the coronary vasculature by flushing down the cross-clamped aortic root. Aliquots of perfusate were immediately transferred to an anaerobic environment for measurements and compared to an aqueous nitric oxide reference. Differential pulse voltammograms were obtained using a sensor (working electrode), saturated calomel electrode reference, and platinum wire-auxiliary electrode, with a pulse amplitude of 40 mV. Endocardial NO was measured by implanting the sensor in the septal endocardium of a freshly explanted or preserved/transplanted heart, and after the baseline stabilization, […] bradykinin was applied and NO release continuously monitored by amperometry at constant potential of 0.63 V.
compound,measurement,value
"Nc1nc2c(nc(Br)n2[C@@H]2O[C@@H]3COP(=O)(O)O[C@H]3[C@H]2O)c(=O)[nH]1 [8-Br-cGMP, 8-bromoguanosine-3'5' cyclic monophosphate]",effect on NO levels,did not alter NO levels
